In US4174406A, “Terpenylaminoalkanol fish toxicants” (priority 1977, dated 1979):
Values after ≈ are worked out from the molar mass of the structure shown.

Columns and labels:
Asiade clam = assay: Static bioassay in invertebrates (Table 2); format: in vivo, Corbicula sp.; settings: tech, 17 C, limed spring water 22-36 mg/l hardness
Procedure: (§1) The effect of the various toxicants on common invertebrate species was determined in a static test conducted 17° C. The invertebrates tested were collected from natural populations or purchased from commercial suppliers. They were held in soft water in fiberglass tanks in the laboratory or in outdoor plastic swimming pools. Mortality was observed during holding, and only healthy organisms were used for the toxicity tests. At least 10 organisms of nine species were exposed to each concentration in static tests.

Rainbow trout = assay: Outdoor plastic pool test (Table 3); format: in vivo, Salmo gairdneri; settings: 96 hour; for % kill: 50% formulation (hydrochloride salt)
Procedure: (§2) N-(2-hydroxyethyl) digeranylamine was tested as a selective fish toxicant in outdoor pools stocked with various fish species and lined with black plastic using 50% water soluble formulations (hydrochloride salt). The formulation was added to each of four pools of 4,000-liter capacity at concentrations of 0.10, 0.15, 0.20, and 0.30 mg/liter. Another pool containing the same number, size, and species of fish served as a control. The test water had algal blooms, a pH of about 8.5, and a total hardness of about 200 mg/liter as CaCo3. The temperature was cool enough (15°-16°C.) to permit the use of trout.
(§3) Fish were obtained from state and federal hatcheries and maintained prior to testing by a trained fish culturist. Fish of total length 2-5 cm were used in laboratory tests while for outdoor tests small fish (4-6 cm in length) and larger carp and buffalo (Ictiobus cyprinellus) were used.
(§4) In all tests 10 fish of each were exposed to selective concentrations of the toxicant. Mortalities were observed and recorded at 1,2 and 6 hours on the first day and once daily thereafter, during 96 hour exposure.
(§5) Outdoor pool tests were conducted using 50% formulation of the toxicant N-(2-hydroxyethyl) digeranylamine as indicated in Example 8. […] If selective control of white sucker and common carp is desired in an environment which includes rainbow trout, one should employ an effective concentration of toxicant which is at least as great as 0.05 mg/liter but less than 0.1 mg/liter. As a practical fishery practice in the northern United States and Canada, rainbow trout are not usually stocked in bodies of water containing the common carp species; the habitat conditions including water temperature and available oxygen of these species are usually quite different. Common carp and rainbow trout have quite different oxygen and temperature requirements and these differences generally preclude both species cohabitating under natural conditions. In this case the useful range to control common carp and white sucker can be much broader, i.e. 0.1 to 0.3 mg/liter.

Largermouth bass = assay: Laboratory fish toxicity test (Table 1); format: in vivo, Micropterus salmoides; settings: tech, 12 C, soft water
Procedure: as §3, §4
(§6) Laboratory tests were also conducted in soft water 12° C. wherein the toxicant was evaluated against fifteen species of fish including both cold and warm water varieties. In Table 1, the LC 50 toxicity values for N-(2-hydroxyethyl) digeranylamine is shown for various species. LC50 is defined as the amount (mg/liter) of toxicant required to kill 50 percent of the particular fish species at 95% confidence interval.

Goldfish [1] = assay: Outdoor plastic pool test (Table 3); format: in vivo, Carassius auratus; settings: for % kill: 96 hour, 50% formulation (hydrochloride salt)
Procedure: as §2, §3, §4, §5

Banded killifish = assay: Laboratory fish toxicity test (Table 1); format: in vivo, Fundulus diaphanus; settings: tech, 12 C, soft water
Procedure: as §3, §4, §6

Fathead minnow = assay: Laboratory fish toxicity test (Table 1); format: in vivo, Pimephales promelas; settings: tech, 12 C, soft water
Procedure: as §3, §4, §6

Green sunfish = assay: Influence of pH on toxicity to green sunfish in soft water (Table 4); format: in vivo, Lepomis cyanellus; settings: tech, 12 C
Procedure: To determine the influence of pH of the water used on the toxicity of the terpenylaminoalkanols evaluated, experiments were conducted with green sunfish (Lepomis cyanellus) using soft water at 12° C. and chemically buffered over the range of pH 6 to pH 9.

Goldfish [2] = assay: Laboratory fish toxicity test (Table 1); format: in vivo, Carassius auratus; settings: tech, 12 C, soft water
Procedure: as §3, §4, §6

Bluegill = assay: Outdoor plastic pool test (Table 3); format: in vivo, Lepomis macrochirus; settings: for % kill: 96 hour, 50% formulation (hydrochloride salt)
Procedure: as §2, §3, §4, §5

Snail (Physa sp.) = assay: Static bioassay in invertebrates (Table 2); format: in vivo; settings: tech, 17 C, limed spring water 22-36 mg/l hardness
Procedure: as §1

Aquatic olgochaete = assay: Static bioassay in invertebrates (Table 2); format: in vivo; settings: Tubifex tubifex, tech, 17 C, limed spring water 22-36 mg/l hardness
Procedure: as §1

Seed shrimp or ostracod = assay: Static bioassay in invertebrates (Table 2); format: in vivo; settings: tech, 17 C, limed spring water 22-36 mg/l hardness
Procedure: as §1

Largemouth bass = assay: Outdoor plastic pool test (Table 3); format: in vivo, Micropterus salmoides; settings: for % kill: 96 hour, 50% formulation (hydrochloride salt)
Procedure: as §2, §3, §4, §5

Walleye = assay: Outdoor plastic pool test (Table 3); format: in vivo, Sitzostedion vitreum; settings: for % kill: 96 hour, 50% formulation (hydrochloride salt)
Procedure: as §2, §3, §4, §5

SMILES: CC(C)=CCC/C(C)=C/CN(C/C=C(\C)CCC=C(C)C)CCO [N-(2-hydroxyethyl) digeranylamine]
- LC50 (Asiade clam; 28 hours): 56.0 µg/mL (≈ 168 µM)
- LC50 (Asiade clam; 96 hours): 9.60 µg/mL (≈ 28.8 µM)
- % kill (Rainbow trout; 0.10 mg/l): 100%
- % kill (Rainbow trout; 0.15 mg/l): 100%
- % kill (Rainbow trout; 0.20 mg/l): 100%
- % kill (Rainbow trout; 0.30 mg/l): 100%
- kill (in words) (Rainbow trout; above 0.10 mg/l, 50% formulation): completely eliminated at all concentrations above 0.10 mg/l
- LC50 (Largermouth bass; 3 hours): 1.40 µg/mL (≈ 4.2 µM)
- LC50 (Largermouth bass; 6 hours): 0.530 µg/mL (≈ 1.59 µM)
- LC50 (Largermouth bass; 24 hours): 0.380 µg/mL (≈ 1.14 µM)
- LC50 (Largermouth bass; 96 hours): 0.360 µg/mL (≈ 1.08 µM)
- % kill (Goldfish [1]; 0.10 mg/l): 0%
- % kill (Goldfish [1]; 0.15 mg/l): 0%
- % kill (Goldfish [1]; 0.20 mg/l): 0%
- % kill (Goldfish [1]; 0.30 mg/l): 0%
- survival (in words) (Goldfish [1]; goldfish, 0.3 mg/liter, 50% formulation): complete survival
- LC50 (Banded killifish; 3 hours): 7.20 µg/mL (≈ 21.6 µM)
- LC50 (Banded killifish; 6 hours): 2.77 µg/mL (≈ 8.3 µM)
- LC50 (Banded killifish; 24 hours): 1.32 µg/mL (≈ 3.96 µM)
- LC50 (Banded killifish; 96 hours): 0.792 µg/mL (≈ 2.37 µM)
- LC50 (Fathead minnow; 6 hours): 1.55 µg/mL (≈ 4.65 µM)
- LC50 (Fathead minnow; 24 hours): 0.560 µg/mL (≈ 1.68 µM)
- LC50 (Fathead minnow; 96 hours): 0.303 µg/mL (≈ 0.908 µM)
- LC50 (Green sunfish; pH 6.0, 3 hours): 6.34 µg/mL (≈ 19 µM)
- LC50 (Green sunfish; pH 6.0, 6 hours): 5.00 µg/mL (≈ 15 µM)
- LC50 (Green sunfish; pH 6.0, 24 hours): 2.84 µg/mL (≈ 8.51 µM)
- LC50 (Green sunfish; pH 6.0, 96 hours): 1.85 µg/mL (≈ 5.55 µM)
- LC50 (Green sunfish; pH 7.5, 3 hours): 2.47 µg/mL (≈ 7.4 µM)
- LC50 (Green sunfish; pH 7.5, 6 hours): 1.64 µg/mL (≈ 4.92 µM)
- LC50 (Green sunfish; pH 7.5, 24 hours): 1.00 µg/mL (≈ 3 µM)
- LC50 (Green sunfish; pH 7.5, 96 hours): 0.829 µg/mL (≈ 2.49 µM)
- LC50 (Green sunfish; pH 8.0, 24 hours): 0.520 µg/mL (≈ 1.56 µM)
- LC50 (Green sunfish; pH 8.0, 96 hours): 0.520 µg/mL (≈ 1.56 µM)
- LC50 (Green sunfish; pH 9.0, 3 hours): 0.870 µg/mL (≈ 2.61 µM)
- LC50 (Green sunfish; pH 9.0, 24 hours): 0.360 µg/mL (≈ 1.08 µM)
- LC50 (Green sunfish; pH 9.0, 96 hours): 0.268 µg/mL (≈ 0.803 µM)
- LC50 (Goldfish [2]; 24 hours): 0.961 µg/mL (≈ 2.88 µM)
- LC50 (Goldfish [2]; 96 hours): 0.290 µg/mL (≈ 0.869 µM)
- % kill (Bluegill; 0.10 mg/l): 0%
- % kill (Bluegill; 0.15 mg/l): 0%
- % kill (Bluegill; 0.20 mg/l): 0%
- % kill (Bluegill; 0.30 mg/l): 0%
- survival (in words) (Bluegill; bluegill, 0.3 mg/liter, 50% formulation): complete survival
- LC50 (Snail (Physa sp.); 1 hour): 6.30 µg/mL (≈ 18.9 µM)
- LC50 (Snail (Physa sp.); 3 hour): 2.25 µg/mL (≈ 6.75 µM)
- LC50 (Snail (Physa sp.); 6 hours): 0.945 µg/mL (≈ 2.83 µM)
- LC50 (Snail (Physa sp.); 28 hours): 0.580 µg/mL (≈ 1.74 µM)
- LC50 (Snail (Physa sp.); 96 hours): 0.460 µg/mL (≈ 1.38 µM)
- LC50 (Aquatic olgochaete; 1 hour): 4.3 µg/mL (≈ 12.9 µM)
- LC50 (Aquatic olgochaete; 3 hour): 2.64 µg/mL (≈ 7.91 µM)
- LC50 (Aquatic olgochaete; 6 hours): 2.35 µg/mL (≈ 7.05 µM)
- LC50 (Aquatic olgochaete; 28 hours): 0.28 µg/mL (≈ 0.839 µM)
- LC50 (Aquatic olgochaete; 96 hours): 0.054 µg/mL (≈ 0.162 µM)
- LC50 (Seed shrimp or ostracod; 6 hours): 3 µg/mL (≈ 8.99 µM)
- LC50 (Seed shrimp or ostracod; 28 hours): 1 µg/mL (≈ 3 µM)
- LC50 (Seed shrimp or ostracod; 96 hours): 0.32 µg/mL (≈ 0.959 µM)
- % kill (Largemouth bass; 0.10 mg/l): 0%
- % kill (Largemouth bass; 0.15 mg/l): 0%
- % kill (Largemouth bass; 0.20 mg/l): 0%
- % kill (Largemouth bass; 0.30 mg/l): 0%
- survival (in words) (Largemouth bass; largemouth bass, 0.3 mg/liter, 50% formulation): complete survival
- % kill (Walleye; 0.10 mg/l): 0%
- % kill (Walleye; 0.15 mg/l): 10%
- % kill (Walleye; 0.20 mg/l): 0%
- % kill (Walleye; 0.30 mg/l): 0%
- survival (in words) (Walleye; walleye, 0.3 mg/liter, 50% formulation): complete survival
